From PubChem BioAssay (NCI)
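Assay format: 96-well plates, 48-hour exposure. Definition used: TGI = concentration required for complete inhibition of growth.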

Columns and labels:
Experiment in all cases: growth of human tumour cells (NCI), 48 h
786-0 renal = test system: 786-0 renal
A498 renal = test system: A498 renal
A549 NSCLC = test system: A549 NSCLC
ACHN renal = test system: ACHN renal
BT-549 breast = test system: BT-549 breast
CAKI-1 renal = test system: CAKI-1 renal
COLO 205 colon = test system: COLO 205 colon
DU-145 prostate = test system: DU-145 prostate
EKVX NSCLC = test system: EKVX NSCLC
HCT-116 colon = test system: HCT-116 colon
HCT-15 colon = test system: HCT-15 colon
HL-60(TB) leukemia = test system: HL-60(TB) leukemia
HOP-62 NSCLC = test system: HOP-62 NSCLC
HOP-92 NSCLC = test system: HOP-92 NSCLC
HS 578T breast = test system: HS 578T breast
HT29 colon = test system: HT29 colon
IGROV1 ovarian = test system: IGROV1 ovarian
KM12 colon = test system: KM12 colon
LOX IMVI melanoma = test system: LOX IMVI melanoma
M14 melanoma = test system: M14 melanoma
MALME-3M melanoma = test system: MALME-3M melanoma
MCF7 breast = test system: MCF7 breast
MDA-MB-435 = test system: MDA-MB-435
MDA-N = test system: MDA-N
MOLT-4 leukemia = test system: MOLT-4 leukemia
NCI-H226 lung = test system: NCI-H226 lung
NCI-H23 lung = test system: NCI-H23 lung
NCI-H460 lung = test system: NCI-H460 lung
NCI-H522 lung = test system: NCI-H522 lung
OVCAR-3 ovarian = test system: OVCAR-3 ovarian
OVCAR-4 ovarian = test system: OVCAR-4 ovarian
OVCAR-5 ovarian = test system: OVCAR-5 ovarian
OVCAR-8 ovarian = test system: OVCAR-8 ovarian
PC-3 prostate = test system: PC-3 prostate
SF-268 CNS = test system: SF-268 CNS
SF-295 CNS = test system: SF-295 CNS
SF-539 CNS = test system: SF-539 CNS
SK-MEL-2 melanoma = test system: SK-MEL-2 melanoma
SK-MEL-28 melanoma = test system: SK-MEL-28 melanoma
SK-MEL-5 melanoma = test system: SK-MEL-5 melanoma
SK-OV-3 ovarian = test system: SK-OV-3 ovarian
SN12C renal = test system: SN12C renal
SNB-19 CNS = test system: SNB-19 CNS
SNB-75 CNS = test system: SNB-75 CNS
SW-620 colon = test system: SW-620 colon
T-47D breast = test system: T-47D breast
TK-10 renal = test system: TK-10 renal
U251 CNS = test system: U251 CNS
UACC-257 melanoma = test system: UACC-257 melanoma
UACC-62 melanoma = test system: UACC-62 melanoma
UO-31 renal = test system: UO-31 renal
HCC-2998 colon = test system: HCC-2998 colon
MDA-MB-231 breast = test system: MDA-MB-231 breast
NCI/ADR-RES ovarian = test system: NCI/ADR-RES ovarian
RPMI-8226 leukemia = test system: RPMI-8226 leukemia
RXF 393 renal = test system: RXF 393 renal

SMILES: Cc1cccnc1/N=C/c1c(O)n(C)c(=O)[nH]c1=O
- TGI (786-0 renal): > 100 µM
- TGI (A498 renal): > 100 µM
- TGI (A549 NSCLC): > 100 µM
- TGI (ACHN renal): > 100 µM
- TGI (BT-549 breast): > 100 µM
- TGI (CAKI-1 renal): > 100 µM
- TGI (COLO 205 colon): > 100 µM
- TGI (DU-145 prostate): > 100 µM
- TGI (EKVX NSCLC): > 100 µM
- TGI (HCT-116 colon): > 100 µM
- TGI (HCT-15 colon): > 100 µM
- TGI (HL-60(TB) leukemia): > 100 µM
- TGI (HOP-62 NSCLC): > 100 µM
- TGI (HOP-92 NSCLC): > 100 µM
- TGI (HS 578T breast): > 100 µM
- TGI (HT29 colon): > 100 µM
- TGI (IGROV1 ovarian): > 100 µM
- TGI (KM12 colon): > 100 µM
- TGI (LOX IMVI melanoma): > 100 µM
- TGI (M14 melanoma): > 100 µM
- TGI (MALME-3M melanoma): 87.7 µM
- TGI (MCF7 breast): > 100 µM
- TGI (MDA-MB-435): > 100 µM
- TGI (MDA-N): > 100 µM
- TGI (MOLT-4 leukemia): > 100 µM
- TGI (NCI-H226 lung): > 100 µM
- TGI (NCI-H23 lung): > 100 µM
- TGI (NCI-H460 lung): > 100 µM
- TGI (NCI-H522 lung): > 100 µM
- TGI (OVCAR-3 ovarian): > 100 µM
- TGI (OVCAR-4 ovarian): > 100 µM
- TGI (OVCAR-5 ovarian): > 100 µM
- TGI (OVCAR-8 ovarian): > 100 µM
- TGI (PC-3 prostate): > 100 µM
- TGI (SF-268 CNS): > 100 µM
- TGI (SF-295 CNS): > 100 µM
- TGI (SF-539 CNS): > 100 µM
- TGI (SK-MEL-2 melanoma): > 100 µM
- TGI (SK-MEL-28 melanoma): > 100 µM
- TGI (SK-MEL-5 melanoma): > 100 µM
- TGI (SK-OV-3 ovarian): > 100 µM
- TGI (SN12C renal): > 100 µM
- TGI (SNB-19 CNS): > 100 µM
- TGI (SNB-75 CNS): > 100 µM
- TGI (SW-620 colon): > 100 µM
- TGI (T-47D breast): > 100 µM
- TGI (TK-10 renal): > 100 µM
- TGI (U251 CNS): > 100 µM
- TGI (UACC-257 melanoma): > 100 µM
- TGI (UACC-62 melanoma): > 100 µM
- TGI (UO-31 renal): > 100 µM

SMILES: O=c1[nH]c(=O)n(C2CC(O)C(CO)O2)cc1C1=NC1 (stereo unspecified)
- TGI (786-0 renal): > 100 µM
- TGI (A498 renal): > 100 µM
- TGI (A549 NSCLC): > 100 µM
- TGI (ACHN renal): > 100 µM
- TGI (BT-549 breast): > 100 µM
- TGI (COLO 205 colon): > 100 µM
- TGI (DU-145 prostate): > 100 µM
- TGI (EKVX NSCLC): > 100 µM
- TGI (HCC-2998 colon): > 100 µM
- TGI (HCT-116 colon): > 100 µM
- TGI (HCT-15 colon): > 100 µM
- TGI (HOP-62 NSCLC): > 100 µM
- TGI (HOP-92 NSCLC): > 100 µM
- TGI (HS 578T breast): > 100 µM
- TGI (HT29 colon): > 100 µM
- TGI (IGROV1 ovarian): > 100 µM
- TGI (KM12 colon): > 100 µM
- TGI (M14 melanoma): > 100 µM
- TGI (MCF7 breast): > 100 µM
- TGI (MDA-MB-231 breast): > 100 µM
- TGI (MDA-MB-435): > 100 µM
- TGI (MDA-N): > 100 µM
- TGI (MOLT-4 leukemia): > 100 µM
- TGI (NCI-H226 lung): > 100 µM
- TGI (NCI-H23 lung): > 100 µM
- TGI (NCI-H460 lung): > 100 µM
- TGI (NCI/ADR-RES ovarian): > 100 µM
- TGI (OVCAR-3 ovarian): > 100 µM
- TGI (OVCAR-4 ovarian): > 100 µM
- TGI (OVCAR-5 ovarian): > 100 µM
- TGI (OVCAR-8 ovarian): > 100 µM
- TGI (RPMI-8226 leukemia): > 100 µM
- TGI (RXF 393 renal): > 100 µM
- TGI (SF-268 CNS): > 100 µM
- TGI (SF-295 CNS): > 100 µM
- TGI (SF-539 CNS): > 100 µM
- TGI (SK-MEL-2 melanoma): > 100 µM
- TGI (SK-MEL-28 melanoma): > 100 µM
- TGI (SK-MEL-5 melanoma): > 100 µM
- TGI (SK-OV-3 ovarian): > 100 µM
- TGI (SN12C renal): > 100 µM
- TGI (SNB-19 CNS): > 100 µM
- TGI (SNB-75 CNS): > 100 µM
- TGI (SW-620 colon): > 100 µM
- TGI (T-47D breast): > 100 µM
- TGI (TK-10 renal): > 100 µM
- TGI (U251 CNS): > 100 µM
- TGI (UACC-257 melanoma): > 100 µM
- TGI (UACC-62 melanoma): > 100 µM
- TGI (UO-31 renal): > 100 µM
